Here are results for one cell line from the supplement of paper PMC10307832.

What all share (assay): relative viability (nuclei count vs DMSO), 5 days (fraction); higher = more cells survive
Compound in test [1]: CC1=C(C=C(C=C1)NC(=O)C2=CC(=CC=C2)C(C)(C)C#N)NC3=CC4=C(C=C3)N=CN(C4=O)C [AZ628] + CCNC(=O)c1noc(-c2cc(C(C)C)c(O)cc2O)c1-c1ccc(CN2CCOCC2)cc1 [Luminespib] (partner 0.01 µM)
Put shortly:
(§1)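 Relative viability equals treated-well nuclei counts divided by vehicle-well nuclei counts. Counts came from 4× images of lung cancer cell lines grown in 1536-well plates for 5 days after pin-tool dosing on the day after seeding. Dosing used one drug alone or a fixed anchor-drug dose plus five library-drug doses (not always all listed) in √10 steps, and values are medians of duplicate plates.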

Compound in test [2]: C1CC2=C(C1)C=C(C=C2)OC3=NC(=C4C(=N3)N(C=N4)CC5=CC=C(C=C5)C6=CC=CC=C6)N[C@@H](CC7=CC=CC=C7)CO [QS11] + CCNC(=O)c1noc(-c2cc(C(C)C)c(O)cc2O)c1-c1ccc(CN2CCOCC2)cc1 [Luminespib] (partner 0.01 µM)
The gist of the method: as §1

Compound in test [3]: CC1=C(C=C(C=C1)NC(=O)C2=CC(=CC=C2)C(C)(C)C#N)NC3=CC4=C(C=C3)N=CN(C4=O)C [AZ628] + Cc1cc(Nc2cc(N3CCN(C)CC3)nc(Sc3ccc(NC(=O)C4CC4)cc3)n2)n[nH]1 [Tozasertib] (partner 0.1 µM)
The gist of the method: as §1

Compound in test [4]: CC1=C(C=C(C=C1)NC(=O)C2=CC(=CC=C2)C(C)(C)C#N)NC3=CC4=C(C=C3)N=CN(C4=O)C [AZ628] + CC(C)C[C@H](NC(=O)[C@H](Cc1ccccc1)NC(=O)c1cnccn1)B(O)O [Bortezomib] (partner 0.002 µM)
Put shortly:
as §1

As for LCLC-97TM1, the relative viability is 0.804 in test [1] (first compound 0.08 µM); 0.659 in test [1] (first compound 0.253 µM); 0.642 in test [1] (first compound 0.8 µM); 0.464 in test [1] (first compound 2.53 µM); 0.287 in test [1] (first compound 8 µM); 0.709 in test [2] (first compound 0.08 µM). Besides, the relative viability in test [2] (first compound 0.253 µM) worked out at 0.907; in test [2] (first compound 2.53 µM), 0.768; in test [2] (first compound 8 µM), 0.69; in test [3] (first compound 0.08 µM), 0.239; in test [3] (first compound 0.253 µM), 0.202; in test [3] (first compound 0.8 µM), 0.235. In addition, the relative viability was found to be 0.211 in test [3] (first compound 2.53 µM); 0.167 in test [3] (first compound 8 µM); 0.643 in test [4] (first compound 0.08 µM); 0.381 in test [4] (first compound 0.253 µM); 0.199 in test [4] (first compound 0.8 µM); 0.522 in test [4] (first compound 2.53 µM). The relative viability in test [4] (first compound 8 µM) was 0.108.
